Legend:
[1] = molecular target: T1, Beta2 (Homo sapiens, UniProt P07550); assay: PDSP receptor binding, Beta2; details: PDSP primary screen at 10 µM
T1 construct: purchased NIMH PDSP (Psychoactive Drug Screening Program, Roth lab, Case Western Reserve)

[2] = molecular target: T2, 5ht3 (Homo sapiens, UniProt P46098); assay: PDSP receptor binding, 5ht3; details: PDSP primary screen at 10 µM
T2 construct: purchased NIMH PDSP (Psychoactive Drug Screening Program, Roth lab, Case Western Reserve)

[3] = molecular target: T3, M3 (Homo sapiens, UniProt P20309); assay: PDSP receptor binding, M3; details: PDSP primary screen at 10 µM
T3 construct: purchased NIMH PDSP (Psychoactive Drug Screening Program, Roth lab, Case Western Reserve)

[4] = molecular target: T4, H1 (Homo sapiens, UniProt P35367); assay: PDSP receptor binding, H1; details: PDSP primary screen at 10 µM
T4 construct: purchased NIMH PDSP (Psychoactive Drug Screening Program, Roth lab, Case Western Reserve)

[5] = molecular target: T5, M1 (Homo sapiens, UniProt P11229); assay: PDSP receptor binding, M1; details: PDSP primary screen at 10 µM
T5 construct: purchased NIMH PDSP (Psychoactive Drug Screening Program, Roth lab, Case Western Reserve)

[6] = tested on: NMDA; assay: PDSP receptor binding, NMDA; details: PDSP primary screen at 10 µM
[7] = molecular target: T6, D5 (Homo sapiens, UniProt P21918); assay: PDSP receptor binding, D5; details: PDSP primary screen at 10 µM
T6 construct: purchased NIMH PDSP (Psychoactive Drug Screening Program, Roth lab, Case Western Reserve)

[8] = molecular target: T7, H2 (Homo sapiens, UniProt P25021); assay: PDSP receptor binding, H2; details: PDSP primary screen at 10 µM
T7 construct: purchased NIMH PDSP (Psychoactive Drug Screening Program, Roth lab, Case Western Reserve)

[9] = molecular target: T8, NET (Homo sapiens, UniProt P23975); assay: PDSP receptor binding, NET; details: PDSP primary screen at 10 µM
T8 construct: purchased NIMH PDSP (Psychoactive Drug Screening Program, Roth lab, Case Western Reserve)

[10] = molecular target: T9, 5ht7 (Homo sapiens, UniProt P34969); assay: PDSP receptor binding, 5ht7; details: PDSP primary screen at 10 µM
T9 construct: purchased NIMH PDSP (Psychoactive Drug Screening Program, Roth lab, Case Western Reserve)

[11] = molecular target: T10, 5ht2b (Homo sapiens, UniProt P41595); assay: PDSP receptor binding, 5ht2b; details: PDSP primary screen at 10 µM
T10 construct: purchased NIMH PDSP (Psychoactive Drug Screening Program, Roth lab, Case Western Reserve)

[12] = molecular target: α1β3γ2 GABAA/BzR (Homo sapiens, UniProt P14867+P18507); assay: Competition binding to HEK cell membranes, α1β3γ2; design: expressed in transfected cells; details: Figure 5; read-out: Ki α1
[13] = molecular target: T11, Beta1 (Homo sapiens, UniProt P08588); assay: PDSP receptor binding, Beta1; details: PDSP primary screen at 10 µM
T11 construct: purchased NIMH PDSP (Psychoactive Drug Screening Program, Roth lab, Case Western Reserve)

[14] = molecular target: T12, MOR (Homo sapiens, UniProt P35372); assay: PDSP receptor binding, MOR; details: PDSP primary screen at 10 µM
T12 construct: purchased NIMH PDSP (Psychoactive Drug Screening Program, Roth lab, Case Western Reserve)

[15] = molecular target: T13, D4 (Homo sapiens, UniProt P21917); assay: PDSP receptor binding, D4; details: PDSP primary screen at 10 µM
T13 construct: purchased NIMH PDSP (Psychoactive Drug Screening Program, Roth lab, Case Western Reserve)

[16] = molecular target: T14, 5ht5a (Homo sapiens, UniProt P47898); assay: PDSP receptor binding, 5ht5a; details: PDSP primary screen at 10 µM
T14 construct: purchased NIMH PDSP (Psychoactive Drug Screening Program, Roth lab, Case Western Reserve)

[17] = molecular target: T15, D1 (Homo sapiens, UniProt P21728); assay: PDSP receptor binding, D1; details: PDSP primary screen at 10 µM
T15 construct: purchased NIMH PDSP (Psychoactive Drug Screening Program, Roth lab, Case Western Reserve)

[18] = molecular target: T16, H3 (Homo sapiens, UniProt Q9Y5N1); assay: PDSP receptor binding, H3; details: PDSP primary screen at 10 µM
T16 construct: purchased NIMH PDSP (Psychoactive Drug Screening Program, Roth lab, Case Western Reserve)

[19] = molecular target: T17, M5 (Homo sapiens, UniProt P08912); assay: PDSP receptor binding, M5; details: PDSP primary screen at 10 µM
T17 construct: purchased NIMH PDSP (Psychoactive Drug Screening Program, Roth lab, Case Western Reserve)

[20] = molecular target: T18, σ1 (Homo sapiens, UniProt Q99720); assay: PDSP receptor binding, σ1; details: PDSP primary screen at 10 µM
T18 construct: purchased NIMH PDSP (Psychoactive Drug Screening Program, Roth lab, Case Western Reserve)

[21] = molecular target: T19, α5β3γ2 GABAA receptor (Homo sapiens, UniProt P18507+P31644); assay: Oocyte electrophysiology, α5β3γ2; assay type: cell-based
T19 construct: expressed in transfected cells; host or cells: Xenopus oocytes

[22] = molecular target: T20, 5ht6 (Homo sapiens, UniProt P50406); assay: PDSP receptor binding, 5ht6; details: PDSP primary screen at 10 µM
T20 construct: purchased NIMH PDSP (Psychoactive Drug Screening Program, Roth lab, Case Western Reserve)

[23] = molecular target: T21, D2 (Homo sapiens, UniProt P14416); assay: PDSP receptor binding, D2; details: PDSP primary screen at 10 µM
T21 construct: purchased NIMH PDSP (Psychoactive Drug Screening Program, Roth lab, Case Western Reserve)

[24] = molecular target: T22, DOR (Homo sapiens, UniProt P41143); assay: PDSP receptor binding, DOR; details: PDSP primary screen at 10 µM
T22 construct: purchased NIMH PDSP (Psychoactive Drug Screening Program, Roth lab, Case Western Reserve)

[25] = tested on: Imidaz oline; assay: PDSP receptor binding, Imidazoline; details: PDSP primary screen at 10 µM
[26] = molecular target: α5β3γ2 GABAA/BzR (Homo sapiens, UniProt P18507+P31644); assay: Competition binding to HEK cell membranes, α5β3γ2; design: expressed in transfected cells; details: Figure 5; read-out: Ki α5
[27] = tested on: other receptors (PDSP panel); assay: Full PDSP panel receptor binding; details: NIMH PDSP, Case Western Reserve

With CCc1ccc2c(c1)C(=O)N(C)Cc1c(C(=O)OCCCOC(=O)c3ncn4c3CN(C)C(=O)c3cc(CC)ccc3-4)ncn1-2 [XLi-356 (10), 1,3-Bis(8-ethyl-5,6-dihydro-5-methyl-6-oxo-4H-imidazo[1,5a][1,4]benzodiazepine-3-carboxy) propyl diester] the Beta2 binding [1] was “∗ (“∗” indicates “primary missed” (<50% inhibition at 10 µM))”, the 5ht3 binding [2] was “∗ (“∗” indicates “primary missed” (<50% inhibition at 10 µM))” and the M3 binding [3] was “∗ (“∗” indicates “primary missed” (<50% inhibition at 10 µM))”. For the same compound, the H1 binding [4] was “∗ (“∗” indicates “primary missed” (<50% inhibition at 10 µM))”, the M1 binding [5] was “∗ (“∗” indicates “primary missed” (<50% inhibition at 10 µM))” and the NMDA binding [6] was “∗ (“∗” indicates “primary missed” (<50% inhibition at 10 µM))”. The D5 binding [7] was “∗ (“∗” indicates “primary missed” (<50% inhibition at 10 µM))”, the H2 binding [8] was “∗ (“∗” indicates “primary missed” (<50% inhibition at 10 µM))” and the NET binding [9] was “∗ (“∗” indicates “primary missed” (<50% inhibition at 10 µM))”. The 5ht7 binding [10] was “∗ (“∗” indicates “primary missed” (<50% inhibition at 10 µM))”, the 5ht2b binding [11] was “∗ (“∗” indicates “primary missed” (<50% inhibition at 10 µM))” and the Ki [12] was 1850 nM. For the same compound, the Beta1 binding [13] was “∗ (“∗” indicates “primary missed” (<50% inhibition at 10 µM))”, the MOR binding [14] was “∗ (“∗” indicates “primary missed” (<50% inhibition at 10 µM))” and the D4 binding [15] was “∗ (“∗” indicates “primary missed” (<50% inhibition at 10 µM))”. The 5ht5a binding [16] was “∗ (“∗” indicates “primary missed” (<50% inhibition at 10 µM))”, the D1 binding [17] was “∗ (“∗” indicates “primary missed” (<50% inhibition at 10 µM))” and the H3 binding [18] was “∗ (“∗” indicates “primary missed” (<50% inhibition at 10 µM))”. The M5 binding [19] was “∗ (“∗” indicates “primary missed” (<50% inhibition at 10 µM))”, the σ1 binding [20] was “∗ (“∗” indicates “primary missed” (<50% inhibition at 10 µM))” and the “efficacy type at the α5 subtype” value [21] was “weak agonist-antagonist”. The 5ht6 binding [22] was “∗ (“∗” indicates “primary missed” (<50% inhibition at 10 µM))”, the D2 binding [23] was “∗ (“∗” indicates “primary missed” (<50% inhibition at 10 µM))” and the DOR binding [24] was “∗ (“∗” indicates “primary missed” (<50% inhibition at 10 µM))”. The Imidaz oline binding [25] was “∗ (“∗” indicates “primary missed” (<50% inhibition at 10 µM))”, the Ki [26] was 101 nM and the “full panel receptor binding” value [27] was “do not bind to other receptors at levels of concern”.

From publication PMC4657098, “A Review of the Updated Pharmacophore for the Alpha 5 GABA(A) Benzodiazepine Receptor Model” (International Journal of Medicinal Chemistry, 2015)
